Measured values as given in patent publication US9446019B2, “Sparstolonin B based pharmaceutical agent for neuroblastoma treatment” (University of South Carolina, priority 2013, dated 2016).

Tested on: p53 in SH-SY5Y cells
Test: p53 expression by Western blotting
Type: cell-based, human
Details: SsnB 10 μM
Method: After treatment with SsnB, cells were collected, washed with 1×PBS, and lysed with 1× cell lysis buffer (Cell Signaling Technology, Danvers, Mass.) containing phenylmethylsulfonyl fluoride (PMSF) and protease inhibitors (aprotinin and leupeptin) for 30 min on ice, and centrifuged at 12000×rpm for 10 min at 4° C. Supernatant (total cell protein) was collected and stored at −80° C. Protein concentration was determined by bicinchoninic acid method using BCA protein assay kit (Pierce/ThermoScientific, Waltham, Mass.). Equal amount of proteins were diluted with 5× Laemmli samples loading buffer and boiled for five minutes. The proteins were subjected to sodium dodecyl sulfate (SDS)-polyacrylamide gel electrophoresis and analyzed by Western blots. Briefly, after electrophoresis, proteins were transferred on polyvinylidene difluoride (PVDF) membrane at 100 volt for 3 h in cold room. […] Signals were detected by chemiluminiscence detection kit (Pierce/Thermo Fisher Scientific, Rockford, Ill.). […]
At cellular level, mitochondria- or receptor (Fas/FasL)-mediated pathways activate caspase signaling cascade which in turn induces DNA damage and initiates programmed cell death (apoptosis). […] The number of cleaved caspase-3 positive cells were quantitated by ImageJ programme and plotted. […]

SMILES: O=c1occ2c3c(ccc(O)c13)Oc1ccc(O)cc1-2 [SsnB, 8,5′-dihydroxy-4-phenyl-5,2′-oxidoisocoumarin]
- p53 expression vs DMSO: Increased expression of p53
